# Tests used:
# Assay in all cases: KINOMEscan competition binding
# Settings in all cases: compound 10.0 µM
# ACVR1B (human) = ACVR1B (human) (UniProt P36896)
# ACVR2B (human) = ACVR2B (human) (UniProt Q13705)
# ALK (human) = ALK (human) (UniProt Q9UM73)
# CAMKK2 (human) = CAMKK2 (human) (UniProt Q96RR4)
# CDK19 (human) = CDK19 (human) (UniProt Q9BWU1)
# CDK3 (human) = CDK3 (human) (UniProt Q00526)
# CHEK2 (human) = CHEK2 (human) (UniProt O96017)
# CHUK (human) = CHUK (human) (UniProt O15111)
# CLK2 (human) = CLK2 (human) (UniProt P49760)
# EPHA2 (human) = EPHA2 (human) (UniProt P29317)
# EPHA4 (human) = EPHA4 (human) (UniProt P54764)
# FYN (human) = FYN (human) (UniProt P06241)
# GSK3A (human) = GSK3A (human) (UniProt P49840)
# IKBKE (human) = IKBKE (human) (UniProt Q14164)
# KDR (human) = KDR (human) (UniProt P35968)
# LTK (human) = LTK (human) (UniProt P29376)
# MAP2K1 (human) = MAP2K1 (human) (UniProt Q02750)
# MAP2K3 (human) = MAP2K3 (human) (UniProt P46734)
# MAP3K3 (human) = MAP3K3 (human) (UniProt Q99759)
# MAP3K5 (human) = MAP3K5 (human) (UniProt Q99683)
# MAPK11 (human) = MAPK11 (human) (UniProt Q15759)
# MAPK3 (human) = MAPK3 (human) (UniProt P27361)
# MAPK9 (human) = MAPK9 (human) (UniProt P45984)
# MARK2 (human) = MARK2 (human) (UniProt Q7KZI7)
# NEK5 (human) = NEK5 (human) (UniProt Q6P3R8)
# PAK2 (human) = PAK2 (human) (UniProt Q13177)
# PIP5K1A (human) = PIP5K1A (human) (UniProt Q99755)
# PRKD2 (human) = PRKD2 (human) (UniProt Q9BZL6)
# PRKX (human) = PRKX (human) (UniProt P51817)
# ROCK2 (human) = ROCK2 (human) (UniProt O75116)
# RPS6KA5 KD1 (human) = RPS6KA5 KD1 (human) (UniProt O75582)
# SGK110 (human) = SGK110 (human) (UniProt P0C264)
# SIK1 (human) = SIK1 (human) (UniProt P57059)
# SRPK2 (human) = SRPK2 (human) (UniProt P78362)
# STK17B (human) = STK17B (human) (UniProt O94768)
# STK36 (human) = STK36 (human) (UniProt Q9NRP7)
# SYK (human) = SYK (human) (UniProt P43405)
# TESK1 (human) = TESK1 (human) (UniProt Q15569)
# [1] = molecular target: TYK2 JH2 pseudokinase (human) (UniProt P29597)
# YES1 (human) = YES1 (human) (UniProt P07947)
# MAP3K3 (human), sequence (Q99759 whole entry, looked up): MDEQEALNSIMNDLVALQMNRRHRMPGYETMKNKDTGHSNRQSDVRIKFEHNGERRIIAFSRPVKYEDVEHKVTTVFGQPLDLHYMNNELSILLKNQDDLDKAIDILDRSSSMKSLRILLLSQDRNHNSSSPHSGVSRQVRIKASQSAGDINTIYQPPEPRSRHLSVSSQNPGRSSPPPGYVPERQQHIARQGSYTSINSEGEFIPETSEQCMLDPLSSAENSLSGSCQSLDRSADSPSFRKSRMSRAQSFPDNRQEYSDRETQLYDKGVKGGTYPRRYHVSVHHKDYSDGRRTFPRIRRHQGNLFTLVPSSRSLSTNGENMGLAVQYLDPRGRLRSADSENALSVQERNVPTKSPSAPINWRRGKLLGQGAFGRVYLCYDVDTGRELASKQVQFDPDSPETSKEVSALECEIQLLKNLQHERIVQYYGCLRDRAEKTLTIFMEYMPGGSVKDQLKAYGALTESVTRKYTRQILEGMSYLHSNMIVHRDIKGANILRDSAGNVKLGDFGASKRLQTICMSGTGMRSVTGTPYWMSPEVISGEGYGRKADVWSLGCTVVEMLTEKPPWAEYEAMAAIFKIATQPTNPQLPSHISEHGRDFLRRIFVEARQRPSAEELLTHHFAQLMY
# MAPK11 (human), sequence (Q15759 whole entry, looked up): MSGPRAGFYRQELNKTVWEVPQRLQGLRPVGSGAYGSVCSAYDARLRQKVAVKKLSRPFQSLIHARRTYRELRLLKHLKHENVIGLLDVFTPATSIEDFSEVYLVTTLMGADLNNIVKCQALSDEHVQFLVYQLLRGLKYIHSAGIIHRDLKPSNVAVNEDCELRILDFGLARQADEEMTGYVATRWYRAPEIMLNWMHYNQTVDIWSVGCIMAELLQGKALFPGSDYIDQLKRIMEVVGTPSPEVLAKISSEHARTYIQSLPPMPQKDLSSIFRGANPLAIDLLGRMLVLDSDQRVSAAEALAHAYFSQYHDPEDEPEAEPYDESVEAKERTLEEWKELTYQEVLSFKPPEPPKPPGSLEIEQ
# PAK2 (human), sequence (Q13177 whole entry, looked up): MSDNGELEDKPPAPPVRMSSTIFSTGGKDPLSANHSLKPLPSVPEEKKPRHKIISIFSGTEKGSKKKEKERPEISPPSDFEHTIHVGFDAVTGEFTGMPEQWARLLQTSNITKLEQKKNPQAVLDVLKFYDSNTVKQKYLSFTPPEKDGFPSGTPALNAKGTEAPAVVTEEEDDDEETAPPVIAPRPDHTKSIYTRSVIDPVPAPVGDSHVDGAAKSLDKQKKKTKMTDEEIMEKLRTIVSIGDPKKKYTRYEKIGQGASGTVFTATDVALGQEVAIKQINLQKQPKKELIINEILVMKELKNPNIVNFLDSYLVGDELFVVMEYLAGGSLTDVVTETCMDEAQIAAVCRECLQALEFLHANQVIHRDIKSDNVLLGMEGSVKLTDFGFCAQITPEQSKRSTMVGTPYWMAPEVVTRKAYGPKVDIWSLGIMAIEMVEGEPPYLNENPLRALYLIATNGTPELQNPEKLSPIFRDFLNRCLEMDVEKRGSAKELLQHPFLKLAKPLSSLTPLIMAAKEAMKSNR
# EPHA2 (human), sequence (P29317 whole entry, looked up): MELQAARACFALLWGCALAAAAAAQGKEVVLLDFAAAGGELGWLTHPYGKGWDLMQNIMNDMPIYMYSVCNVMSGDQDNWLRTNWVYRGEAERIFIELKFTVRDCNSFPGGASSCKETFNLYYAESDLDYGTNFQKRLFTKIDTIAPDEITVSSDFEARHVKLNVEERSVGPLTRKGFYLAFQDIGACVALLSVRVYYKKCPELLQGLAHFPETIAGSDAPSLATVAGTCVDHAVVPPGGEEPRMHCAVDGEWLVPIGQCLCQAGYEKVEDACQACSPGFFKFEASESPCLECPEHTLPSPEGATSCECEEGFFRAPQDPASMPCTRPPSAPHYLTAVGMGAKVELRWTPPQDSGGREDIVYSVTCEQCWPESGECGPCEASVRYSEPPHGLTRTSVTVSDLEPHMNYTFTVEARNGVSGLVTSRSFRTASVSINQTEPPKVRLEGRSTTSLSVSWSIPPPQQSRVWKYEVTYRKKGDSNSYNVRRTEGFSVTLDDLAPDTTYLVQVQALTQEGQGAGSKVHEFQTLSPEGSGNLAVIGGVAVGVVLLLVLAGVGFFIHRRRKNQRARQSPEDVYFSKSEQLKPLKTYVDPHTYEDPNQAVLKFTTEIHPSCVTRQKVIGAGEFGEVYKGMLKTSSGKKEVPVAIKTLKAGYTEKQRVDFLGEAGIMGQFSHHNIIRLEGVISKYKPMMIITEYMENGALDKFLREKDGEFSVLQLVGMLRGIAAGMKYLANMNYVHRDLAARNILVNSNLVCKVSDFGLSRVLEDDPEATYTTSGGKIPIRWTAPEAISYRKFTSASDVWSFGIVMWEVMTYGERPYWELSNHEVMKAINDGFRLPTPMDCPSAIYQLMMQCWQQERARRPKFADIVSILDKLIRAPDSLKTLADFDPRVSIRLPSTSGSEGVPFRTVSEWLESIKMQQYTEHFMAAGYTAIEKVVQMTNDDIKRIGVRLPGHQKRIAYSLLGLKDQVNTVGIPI
# CDK3 (human), sequence (Q00526 whole entry, looked up): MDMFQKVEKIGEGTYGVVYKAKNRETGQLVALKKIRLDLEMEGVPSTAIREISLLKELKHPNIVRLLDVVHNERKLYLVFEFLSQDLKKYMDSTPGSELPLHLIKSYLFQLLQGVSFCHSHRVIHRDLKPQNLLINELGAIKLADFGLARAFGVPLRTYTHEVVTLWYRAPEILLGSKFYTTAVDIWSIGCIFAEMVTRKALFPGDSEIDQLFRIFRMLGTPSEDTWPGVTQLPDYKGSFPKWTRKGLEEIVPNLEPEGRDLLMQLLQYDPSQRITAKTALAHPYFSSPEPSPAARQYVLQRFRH
# ROCK2 (human), sequence (O75116 whole entry, looked up): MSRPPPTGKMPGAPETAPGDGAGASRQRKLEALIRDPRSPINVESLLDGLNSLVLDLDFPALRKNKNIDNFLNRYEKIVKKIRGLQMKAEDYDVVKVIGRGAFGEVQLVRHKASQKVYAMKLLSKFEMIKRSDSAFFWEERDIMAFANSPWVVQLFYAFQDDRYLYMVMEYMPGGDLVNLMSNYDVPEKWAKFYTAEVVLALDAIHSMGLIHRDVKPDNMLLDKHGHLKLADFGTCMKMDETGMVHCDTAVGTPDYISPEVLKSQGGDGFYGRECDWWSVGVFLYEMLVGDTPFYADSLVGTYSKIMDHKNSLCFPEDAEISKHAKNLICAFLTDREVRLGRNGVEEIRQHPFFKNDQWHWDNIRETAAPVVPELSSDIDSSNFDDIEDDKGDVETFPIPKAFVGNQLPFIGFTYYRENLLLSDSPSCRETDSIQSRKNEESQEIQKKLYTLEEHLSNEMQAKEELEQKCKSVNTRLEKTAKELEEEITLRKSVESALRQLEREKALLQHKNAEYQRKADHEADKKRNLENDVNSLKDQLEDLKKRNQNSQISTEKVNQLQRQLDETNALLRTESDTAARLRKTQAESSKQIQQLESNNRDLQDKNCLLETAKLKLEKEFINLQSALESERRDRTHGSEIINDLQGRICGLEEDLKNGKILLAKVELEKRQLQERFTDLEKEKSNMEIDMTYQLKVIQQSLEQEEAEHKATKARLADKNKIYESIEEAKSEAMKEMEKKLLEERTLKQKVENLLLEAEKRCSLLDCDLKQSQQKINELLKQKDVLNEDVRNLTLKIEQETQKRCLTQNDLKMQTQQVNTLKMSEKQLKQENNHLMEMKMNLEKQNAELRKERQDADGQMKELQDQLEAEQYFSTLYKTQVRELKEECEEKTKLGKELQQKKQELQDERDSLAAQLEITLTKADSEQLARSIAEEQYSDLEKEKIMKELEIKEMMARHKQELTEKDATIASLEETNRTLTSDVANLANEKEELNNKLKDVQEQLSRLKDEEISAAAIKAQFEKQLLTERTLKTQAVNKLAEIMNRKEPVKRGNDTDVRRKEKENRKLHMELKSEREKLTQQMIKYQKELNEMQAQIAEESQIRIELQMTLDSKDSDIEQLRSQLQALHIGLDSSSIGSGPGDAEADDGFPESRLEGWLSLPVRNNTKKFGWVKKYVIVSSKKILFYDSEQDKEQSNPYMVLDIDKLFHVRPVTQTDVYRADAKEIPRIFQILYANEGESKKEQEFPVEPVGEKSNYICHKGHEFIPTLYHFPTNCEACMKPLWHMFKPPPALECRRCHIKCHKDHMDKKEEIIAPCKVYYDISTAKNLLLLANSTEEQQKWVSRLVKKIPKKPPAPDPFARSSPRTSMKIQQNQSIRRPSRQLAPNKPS
# PRKX (human), sequence (P51817 whole entry, looked up): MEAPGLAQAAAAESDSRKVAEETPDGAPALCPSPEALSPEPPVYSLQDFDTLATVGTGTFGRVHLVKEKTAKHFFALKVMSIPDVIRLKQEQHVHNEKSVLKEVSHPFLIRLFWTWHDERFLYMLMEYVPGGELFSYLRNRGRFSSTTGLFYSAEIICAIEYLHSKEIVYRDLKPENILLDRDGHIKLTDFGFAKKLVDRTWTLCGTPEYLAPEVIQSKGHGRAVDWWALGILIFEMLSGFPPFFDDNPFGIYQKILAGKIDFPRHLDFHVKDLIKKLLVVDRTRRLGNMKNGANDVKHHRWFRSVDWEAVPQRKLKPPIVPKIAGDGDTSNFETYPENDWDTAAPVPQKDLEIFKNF
# CDK19 (human), sequence (Q9BWU1 whole entry, looked up): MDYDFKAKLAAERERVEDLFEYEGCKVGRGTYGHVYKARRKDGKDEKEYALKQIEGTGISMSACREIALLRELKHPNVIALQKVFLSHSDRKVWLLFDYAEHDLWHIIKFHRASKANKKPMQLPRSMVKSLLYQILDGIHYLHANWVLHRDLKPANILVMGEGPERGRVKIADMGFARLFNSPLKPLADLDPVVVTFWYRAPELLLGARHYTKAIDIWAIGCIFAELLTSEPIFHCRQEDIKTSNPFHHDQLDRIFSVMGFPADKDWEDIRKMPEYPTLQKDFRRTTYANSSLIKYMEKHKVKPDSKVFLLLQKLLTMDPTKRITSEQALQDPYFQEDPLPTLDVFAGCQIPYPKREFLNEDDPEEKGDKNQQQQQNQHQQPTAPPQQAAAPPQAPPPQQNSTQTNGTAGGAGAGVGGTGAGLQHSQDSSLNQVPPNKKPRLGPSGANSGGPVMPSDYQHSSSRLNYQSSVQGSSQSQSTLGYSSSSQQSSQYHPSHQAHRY
SMILES,"kinase still bound, per cent of control (ACVR1B (human))","kinase still bound, per cent of control (ACVR2B (human))","kinase still bound, per cent of control (ALK (human))","kinase still bound, per cent of control (CAMKK2 (human))","kinase still bound, per cent of control (CDK19 (human))","kinase still bound, per cent of control (CDK3 (human))","kinase still bound, per cent of control (CHEK2 (human))","kinase still bound, per cent of control (CLK2 (human))","kinase still bound, per cent of control (EPHA2 (human))","kinase still bound, per cent of control (EPHA4 (human))","kinase still bound, per cent of control (FYN (human))","kinase still bound, per cent of control (GSK3A (human))","kinase still bound, per cent of control (IKBKE (human))","kinase still bound, per cent of control (KDR (human))","kinase still bound, per cent of control (LTK (human))","kinase still bound, per cent of control (MAP2K3 (human))","kinase still bound, per cent of control (MAP3K3 (human))","kinase still bound, per cent of control (MAP3K5 (human))","kinase still bound, per cent of control (MAPK11 (human))","kinase still bound, per cent of control (MAPK3 (human))",also measured
CCN1CCN(Cc2ccc(Nc3ncc4c(n3)N(C)c3ccccc3C(=O)N4C)cc2C(F)(F)F)CC1,100%,29%,64%,47%,95%,100%,100%,39%,83%,100%,20%,100%,73%,100%,100%,74%,0.65%,100%,82%,99%,"kinase still bound, per cent of control (CHUK (human)): 100%; kinase still bound, per cent of control (MAP2K1 (human)): 86%; kinase still bound, per cent of control (MAPK9 (human)): 57%; kinase still bound, per cent of control (MARK2 (human)): 40%; kinase still bound, per cent of control (NEK5 (human)): 77%; kinase still bound, per cent of control (PAK2 (human)): 78%; kinase still bound, per cent of control (PIP5K1A (human)): 5%; kinase still bound, per cent of control (PRKD2 (human)): 25%; kinase still bound, per cent of control (PRKX (human)): 100%; kinase still bound, per cent of control (ROCK2 (human)): 100%; kinase still bound, per cent of control (RPS6KA5 KD1 (human)): 100%; kinase still bound, per cent of control (SGK110 (human)): 0.6%; kinase still bound, per cent of control (SIK1 (human)): 27%; kinase still bound, per cent of control (SRPK2 (human)): 81%; kinase still bound, per cent of control (STK17B (human)): 100%; kinase still bound, per cent of control (STK36 (human)): 82%; kinase still bound, per cent of control (SYK (human)): 78%; kinase still bound, per cent of control (TESK1 (human)): 73%; kinase still bound, per cent of control [1]: 13%; kinase still bound, per cent of control (YES1 (human)): 6.6%"
N#Cc1c(NC(=O)c2cccc3ccccc23)sc2c1CCCC2,100%,67%,100%,94%,88%,97%,84%,87%,100%,100%,63%,72%,100%,96%,90%,88%,96%,94%,100%,74%,"kinase still bound, per cent of control (MAP2K1 (human)): 98%; kinase still bound, per cent of control (MAPK9 (human)): 4.8%; kinase still bound, per cent of control (MARK2 (human)): 100%; kinase still bound, per cent of control (NEK5 (human)): 79%; kinase still bound, per cent of control (PAK2 (human)): 97%; kinase still bound, per cent of control (PIP5K1A (human)): 100%; kinase still bound, per cent of control (PRKD2 (human)): 88%; kinase still bound, per cent of control (PRKX (human)): 100%; kinase still bound, per cent of control (ROCK2 (human)): 100%; kinase still bound, per cent of control (RPS6KA5 KD1 (human)): 85%; kinase still bound, per cent of control (SGK110 (human)): 91%; kinase still bound, per cent of control (SIK1 (human)): 92%; kinase still bound, per cent of control (SRPK2 (human)): 100%; kinase still bound, per cent of control (STK17B (human)): 100%; kinase still bound, per cent of control (STK36 (human)): 66%; kinase still bound, per cent of control (SYK (human)): 99%; kinase still bound, per cent of control (TESK1 (human)): 83%; kinase still bound, per cent of control [1]: 100%; kinase still bound, per cent of control (YES1 (human)): 78%"
O=C(NOC[C@H](O)CO)c1ccc(F)c(F)c1Nc1ccc(I)cc1F,100%,66%,100%,100%,100%,69%,86%,96%,88%,100%,64%,90%,100%,84%,100%,89%,98%,91%,100%,86%,"kinase still bound, per cent of control (CHUK (human)): 100%; kinase still bound, per cent of control (MAPK9 (human)): 88%; kinase still bound, per cent of control (MARK2 (human)): 100%; kinase still bound, per cent of control (NEK5 (human)): 78%; kinase still bound, per cent of control (PAK2 (human)): 93%; kinase still bound, per cent of control (PIP5K1A (human)): 91%; kinase still bound, per cent of control (PRKD2 (human)): 100%; kinase still bound, per cent of control (PRKX (human)): 100%; kinase still bound, per cent of control (ROCK2 (human)): 100%; kinase still bound, per cent of control (RPS6KA5 KD1 (human)): 87%; kinase still bound, per cent of control (SGK110 (human)): 100%; kinase still bound, per cent of control (SIK1 (human)): 100%; kinase still bound, per cent of control (SRPK2 (human)): 100%; kinase still bound, per cent of control (STK17B (human)): 100%; kinase still bound, per cent of control (STK36 (human)): 74%; kinase still bound, per cent of control (SYK (human)): 100%; kinase still bound, per cent of control (TESK1 (human)): 98%; kinase still bound, per cent of control [1]: 100%; kinase still bound, per cent of control (YES1 (human)): 73%"
